According to patent US20240180878A1, “AMIDE DERIVATIVES OF BUTYRIC ACID FOR USE IN THE TREATMENT OR PREVENTION OF SARS-COV-2 INFECTION” (RHEA INNOVATIONS S.R.L., priority 2021, published 2024):

How the values were obtained:
ACE2 [1] = assay: SARS-CoV-2 infection model in Caco-2 cells, expression (qRT-PCR, Western blotting); type: cell-based, human; details: Caco-2 pretreated with 2 mM FBA for 24 h, then 1 MOI wild-type SARS-CoV-2 for 72 h
Method: (§1) The SARS-CoV-2 infection was performed on Caco-2, at 15 days post-confluence, using SARS-CoV-2 wild-type strain. Before the infection, cells were incubated with 2 mM of FBA for 24 h at 37° C. 1 MOI of SARS-CoV-2 was added to the Caco-2 monolayer for 72 h. Then, SARS-CoV-2 inoculum was removed, the cells were washed three times with PBS 1× and were harvested for RNA, proteins extraction and for fluorescence microscopy analysis.
RNA samples were extracted, processed and analyzed as described above. Western blotting was performed on the total protein extracts of infected Caco-2 cells pretreated with FBA. For the total protein fraction, the harvested cells were washed in cold phosphate-buffered saline (PBS) and lysed in protein lysis buffer (RIPA). Protein concentrations in cell extracts were determined using the Bradford assay (BioRad, Milan, Italy). Thirty microgram total lysates were loaded onto 10% SDS-PAGE and then transferred to nitrocellulose membranes (ImmobilonR-Transfer Membrane, Tullagreen, Carrigtwohill, Co). […]
Western blotting was performed on the total protein extracts of infected Caco-2 cells pretreated with FBA. […] Protein concentrations in cell extracts were determined using the Bradford assay (BioRad, Milan, Italy). […]

TMPRSS2 [2] = assay: Small intestinal biopsy organ culture, qRT-PCR gene expression; type: cell-based; details: human small intestine biopsies, 2 mM FBA for 24 h vs medium alone
TNF-α [3] = assay: SARS-CoV-2 infection model in Caco-2 cells, gene expression; type: cell-based, human; details: Caco-2 pretreated with 2 mM FBA for 24 h, then 1 MOI wild-type SARS-CoV-2 for 72 h
Method: as §1
(§2) RNA samples were extracted, processed and analyzed as described above. Western blotting was performed on the total protein extracts of infected Caco-2 cells pretreated with FBA. For the total protein fraction, the harvested cells were washed in cold phosphate-buffered saline (PBS) and lysed in protein lysis buffer (RIPA). Protein concentrations in cell extracts were determined using the Bradford assay (BioRad, Milan, Italy). Thirty microgram total lysates were loaded onto 10% SDS-PAGE and then transferred to nitrocellulose membranes (ImmobilonR-Transfer Membrane, Tullagreen, Carrigtwohill, Co). The membranes were blocked with 5% non-fat milk in PBS, pH 7.6, 0.2% Tween 20 (PanReac AppliChem) and probed overnight at 4° C. with the specific primary antibodies for ACE2 (1:2000; Abcam). After washing in PBS, pH 7.6, 0.2% Tween 20, the membranes were incubated with a horseradish peroxidase-conjugated goat anti-rabbit antibody (1:2000; Abcam). The immunoblots were visualized using ECL detection kits, with enhanced chemiluminescence (Pierce, Rockford, IL, USA). A mouse β-actin antibody (1:5000; Elabscience) was used as the control for equal loading of total lysates.

CXCL1 = assay: as above; type: cell-based, human; details: Caco-2 pretreated with 2 mM FBA for 24 h, then 1 MOI wild-type SARS-CoV-2 for 72 h
Method: as §1, §2

VEGFβ = assay: as above; type: cell-based, human; details: Caco-2 pretreated with 2 mM FBA for 24 h, then 1 MOI wild-type SARS-CoV-2 for 72 h
Method: as §1, §2

TMPRSS2 [4] = assay: as above; type: cell-based, human; details: Caco-2 pretreated with 2 mM FBA for 24 h, then 1 MOI wild-type SARS-CoV-2 for 72 h
Method: as §1, §2

MCP-1 [5] = assay: as above; type: cell-based, human; details: Caco-2 pretreated with 2 mM FBA for 24 h, then 1 MOI wild-type SARS-CoV-2 for 72 h
Method: as §1, §2

TNF-α [6] = assay: Human respiratory epithelial cell line Calu3, qRT-PCR gene expression; type: cell-based; details: Calu3 cells, 2 mM FBA, 24 h of incubation
IL-15 [7] = assay: Human enterocytes cell line (Caco-2), qRT-PCR gene expression; type: cell-based; details: Caco-2 cells, 2 mM FBA (maximal effective dose), 24 h of incubation
ACE2 [8] = assay: Human respiratory epithelial cell line Calu3, qRT-PCR gene expression; type: cell-based; details: Calu3 cells, 2 mM FBA, 24 h of incubation
[9] = system: SARS-CoV-2 wild-type strain; type: cell-based; details: Caco-2 pretreated with 2 mM FBA for 24 h, then 1 MOI wild-type SARS-CoV-2 for 72 h
interleukin (IL)-15 = assay: Small intestinal biopsy organ culture, qRT-PCR gene expression; type: cell-based; details: human small intestine biopsies, 2 mM FBA vs medium alone
MCP-1 [10] = assay: Human respiratory epithelial cell line Calu3, qRT-PCR gene expression; type: cell-based; details: Calu3 cells, 2 mM FBA, 24 h of incubation
ACE2 [11] = assay: Human enterocytes cell line (Caco-2), qRT-PCR gene expression; type: cell-based; details: Caco-2 cells, 2 mM FBA (maximal effective dose), 24 h of incubation
MCP-1 [12] = assay: as above; type: cell-based; details: Caco-2 cells, 2 mM FBA (maximal effective dose), 24 h of incubation
TMPRSS2 [13] = assay: Human respiratory epithelial cell line Calu3, qRT-PCR gene expression; type: cell-based; details: Calu3 cells, 2 mM FBA, 24 h of incubation
TMPRSS2 [14] = assay: Human enterocytes cell line (Caco-2), qRT-PCR gene expression; type: cell-based; details: Caco-2 cells, 2 mM FBA (maximal effective dose), 24 h of incubation
TNF-α [15] = assay: as above; type: cell-based; details: Caco-2 cells, 2 mM FBA (maximal effective dose), 24 h of incubation
IL-1β = assay: SARS-CoV-2 infection model in Caco-2 cells, gene expression; type: cell-based, human; details: Caco-2 pretreated with 2 mM FBA for 24 h, then 1 MOI wild-type SARS-CoV-2 for 72 h
IL-15 [16] = assay: Human respiratory epithelial cell line Calu3, qRT-PCR gene expression; type: cell-based; details: Calu3 cells, 2 mM FBA, 24 h of incubation
[17] = system: tumor necrosis factor-alpha (TNF-α); assay: Small intestinal biopsy organ culture, qRT-PCR gene expression; type: cell-based; details: human small intestine biopsies, 2 mM FBA vs medium alone
[18] = system: monocyte chemoattractant protein-1 (MCP-1); assay: as above; type: cell-based; details: human small intestine biopsies, 2 mM FBA vs medium alone
ACE2 [19] = assay: as above; type: cell-based; details: human small intestine biopsies, 2 mM FBA for 24 h vs medium alone

## CCCC(=O)NC(Cc1ccccc1)C(N)=O (centres unmarked) [FBA, N-(1-carbamoyl-2-phenyl-ethyl) butyramide]
ACE2 [1]
  ACE2 expression: inhibit
TMPRSS2 [2]
  expression of TMPRSS2: significantly decreased
TNF-α [3]
  expression of TNF-α: inhibit
CXCL1
  expression of CXCL1: inhibit
VEGFβ
  expression of VEGFβ: inhibit
TMPRSS2 [4]
  TMPRSS2 expression: inhibit
MCP-1 [5]
  expression of MCP-1: inhibit
TNF-α [6]
  expression of TNF-α: downregulate
IL-15 [7]
  IL-15 expression: significantly reduce
ACE2 [8]
  expression of ACE2: downregulate
[9]
  virus entry: inhibit
Interleukin (IL)-15
  expression of interleukin (IL)-15: significant reduction
MCP-1 [10]
  expression of MCP-1: downregulate
ACE2 [11]
  ACE2 expression: significantly reduce
MCP-1 [12]
  MCP-1 expression: significantly reduce
TMPRSS2 [13]
  expression of TMPRSS2: downregulate
TMPRSS2 [14]
  TMPRSS2 expression: significantly reduce
TNF-α [15]
  TNF-α expression: significantly reduce
IL-1β
  expression of IL-1β: inhibit
IL-15 [16]
  expression of IL-15: downregulate
[17]
  expression of TNF-α: significant reduction
[18]
  expression of MCP-1: significant reduction
ACE2 [19]
  expression of ACE2: significantly decreased
